Test results from PubChem BioAssay (NCI).
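Values below derive from 48-hour exposures of cells grown in 96-well plates, with endpoints linearly interpolated between the two concentrations bracketing the appropriate inhibition level. Here, GI50 denotes the concentration required for 50% inhibition of growth. TGI: concentration producing complete growth inhibition.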

Assays:
Assay in all cases: DTP human tumour cell line panel, 48 h
[1] = tested on: SNB-75 CNS
[2] = tested on: SF-295 CNS
[3] = tested on: ACHN renal
[4] = tested on: HCC-2998 colon
[5] = tested on: MDA-MB-435
[6] = tested on: HT29 colon
[7] = tested on: CCRF-CEM leukemia
[8] = tested on: DU-145 prostate
[9] = tested on: COLO 205 colon
[10] = tested on: NCI-H226 lung
[11] = tested on: NCI-H460 lung
[12] = tested on: MALME-3M melanoma
[13] = tested on: CAKI-1 renal
[14] = tested on: NCI/ADR-RES ovarian
[15] = tested on: OVCAR-5 ovarian
[16] = tested on: UO-31 renal
[17] = tested on: IGROV1 ovarian
[18] = tested on: RPMI-8226 leukemia
[19] = tested on: LOX IMVI melanoma
[20] = tested on: NCI-H23 lung
[21] = tested on: A549 NSCLC
[22] = tested on: M14 melanoma
[23] = tested on: UACC-257 melanoma
[24] = tested on: 786-0 renal
[25] = tested on: SK-MEL-2 melanoma
[26] = tested on: A498 renal
[27] = tested on: PC-3 prostate
[28] = tested on: SF-268 CNS
[29] = tested on: OVCAR-4 ovarian
[30] = tested on: UACC-62 melanoma
[31] = tested on: SK-MEL-28 melanoma
[32] = tested on: BT-549 breast
[33] = tested on: U251 CNS
[34] = tested on: MOLT-4 leukemia
[35] = tested on: HCT-15 colon
[36] = tested on: SNB-19 CNS
[37] = tested on: MCF7 breast
[38] = tested on: NCI-H522 lung
[39] = tested on: HOP-92 NSCLC
[40] = tested on: SR leukemia
[41] = tested on: SK-MEL-5 melanoma
[42] = tested on: TK-10 renal
[43] = tested on: SW-620 colon
[44] = tested on: HCT-116 colon
[45] = tested on: HS 578T breast
[46] = tested on: RXF 393 renal
[47] = tested on: KM12 colon
[48] = tested on: HOP-62 NSCLC
[49] = tested on: MDA-MB-231 breast
[50] = tested on: T-47D breast
[51] = tested on: K-562 leukemia
[52] = tested on: HL-60(TB) leukemia
[53] = tested on: OVCAR-8 ovarian
[54] = tested on: SF-539 CNS
[55] = tested on: SN12C renal
[56] = tested on: OVCAR-3 ovarian
[57] = tested on: SK-OV-3 ovarian

Work on `CN(CCO)C1CCN(c2ccc(Nc3ncc4c5ccnc(F)c5n(C5CCCC5)c4n3)nc2)CC1` yielded a GI50 [1] of 5.67 µM, a TGI [1] of 20.7 µM and a GI50 [2] of 2.22 µM. The TGI [2] was 20.2 µM, the GI50 [3] was 1.98 µM and the TGI [3] was 20.6 µM. For the same molecule, the GI50 [4] was 11.1 µM, the TGI [4] was 25.4 µM and the GI50 [5] was 5.84 µM. For the same molecule, the TGI [5] was 20.7 µM, the GI50 [6] was 1.23 µM and the TGI [6] was 4.45 µM. For the same molecule, the GI50 [7] was 0.208 µM, the TGI [7] was 3.59 µM and the GI50 [8] was 1.76 µM. For the same molecule, the TGI [8] was 3.18 µM, the GI50 [9] was 0.0817 µM and the TGI [9] was 18.5 µM. The GI50 [10] was 16.3 µM, the TGI [10] was 55 µM and the GI50 [11] was 0.99 µM. For the same molecule, the TGI [11] was 2.44 µM, the GI50 [12] was 12.7 µM and the TGI [12] was 34.5 µM. For the same molecule, the GI50 [13] was 4.44 µM, the TGI [13] was 21.3 µM and the GI50 [14] was 15.3 µM. It also gave a TGI [14] of 36 µM, a GI50 [15] of 0.812 µM and a TGI [15] of 20.7 µM. The GI50 [16] was 1.86 µM, the TGI [16] was 20.9 µM and the GI50 [17] was 11.7 µM. It also gave a TGI [17] of 30.8 µM, a GI50 [18] of 0.184 µM and a TGI [18] of 19.8 µM. For the same molecule, the GI50 [19] was 1.02 µM, the TGI [19] was 2.24 µM and the GI50 [20] was 7.76 µM. The TGI [20] was 32.3 µM, the GI50 [21] was 2.27 µM and the TGI [21] was 7.9 µM. The GI50 [22] was 11.7 µM, the TGI [22] was 32.8 µM and the GI50 [23] was 17.6 µM. For the same molecule, the TGI [23] was 40 µM, the GI50 [24] was 5.12 µM and the TGI [24] was 26.9 µM. For the same molecule, the GI50 [25] was 20.4 µM, the TGI [25] was 45.6 µM and the GI50 [26] was 0.366 µM. It also gave a TGI [26] of 14.6 µM, a GI50 [27] of 8.47 µM and a TGI [27] of 25.8 µM. It also gave a GI50 [28] of 12.5 µM, a TGI [28] of 30.9 µM and a GI50 [29] of 11.2 µM. It also gave a TGI [29] of 27.7 µM, a GI50 [30] of 16.7 µM and a TGI [30] of 46 µM. For the same molecule, the GI50 [31] was 12.3 µM, the TGI [31] was 28.9 µM and the GI50 [32] was 13.1 µM. For the same molecule, the TGI [32] was 31.4 µM, the GI50 [33] was 2.74 µM and the TGI [33] was 7.5 µM. For the same molecule, the GI50 [34] was 0.0513 µM, the TGI [34] was 9.74 µM and the GI50 [35] was 3.01 µM. The TGI [35] was 7.79 µM, the GI50 [36] was 2.47 µM and the TGI [36] was 33.8 µM. For the same molecule, the GI50 [37] was 0.106 µM, the TGI [37] was 3.05 µM and the GI50 [38] was 17.2 µM. The TGI [38] was 36.2 µM, the GI50 [39] was 11.6 µM and the TGI [39] was 28.8 µM. The GI50 [40] was 1.23 µM, the TGI [40] was 4.61 µM and the GI50 [41] was 10.9 µM. For the same molecule, the TGI [41] was 25.9 µM, the GI50 [42] was 1.59 µM and the TGI [42] was 21.2 µM. For the same molecule, the GI50 [43] was 0.184 µM, the TGI [43] was 2.21 µM and the GI50 [44] was 1.85 µM. The TGI [44] was 7.36 µM, the GI50 [45] was 6.01 µM and the TGI [45] was 34.3 µM. For the same molecule, the GI50 [46] was 1.73 µM, the TGI [46] was 16.8 µM and the GI50 [47] was 0.0514 µM. It also gave a TGI [47] of 1.73 µM, a GI50 [48] of 4.7 µM and a TGI [48] of 25.4 µM. For the same molecule, the GI50 [49] was 6.01 µM, the TGI [49] was 24.2 µM and the GI50 [50] was 17.5 µM. For the same molecule, the TGI [50] was 69.1 µM, the GI50 [51] was 1.32 µM and the TGI [51] was 4.08 µM. It also gave a GI50 [52] of 0.103 µM, a TGI [52] of 8.05 µM and a GI50 [53] of 14.7 µM. The TGI [53] was 43.4 µM, the GI50 [54] was 4.6 µM and the TGI [54] was 10.5 µM. The GI50 [55] was 12.2 µM, the TGI [55] was 31.5 µM and the GI50 [56] was 14.9 µM. For the same molecule, the TGI [56] was 30.4 µM, the GI50 [57] was 11.1 µM and the TGI [57] was 26 µM.
